In PMC8732799 (Journal of Natural Medicines, 2021):

Tests used:
CYP3A4 = CYP3A4 (Homo sapiens, UniProt P08684); test: Inhibition of paclitaxel metabolism in human liver microsome fraction: 3'-p-hydroxypaclitaxel production; details: human liver microsomes
Description: (§1) Then, 10 µl of 10 mM β-NADPH (Oriental Yeast Co., Ltd., Tokyo, Japan) was added, mixed, and incubated at 37 °C for 140 min. The reaction was stopped by adding 100 µl of ethanol containing 40 µM BHB as an internal standard into the reactant and mixing vigorously. After centrifugation (15,000 × g, 7 min), 10 µl of the supernatant was analyzed using HPLC–MS/MS (Quattro Premier XE, Waters, Milford, MA, USA). The mass spectrometer used an electrospray ionization source in the positive ion mode with multiple reaction monitoring. The analytical column was an Inertsil ODS-4 (2.1 mm i.d. × 100 mm, 3 µm) (GL Sciences Inc., Tokyo, Japan). The mobile phase was delivered using a linear gradient elution system consisting of 0.5% formic acid (A): acetonitrile containing 0.5% formic acid (B), at a flow rate of 0.2 ml/min, with the following gradient profile: 40% B (0 min), increasing from 40 to 70% (0–6 min), and 70% B (6–8 min).

CYP2C8 [1] = target: T1, CYP2C8 (Homo sapiens, UniProt P10632); test: Inhibition of paclitaxel metabolism in human liver microsome fraction: 6α-hydroxypaclitaxel production; details: human liver microsomes
T1 sequence (P10632 1-490): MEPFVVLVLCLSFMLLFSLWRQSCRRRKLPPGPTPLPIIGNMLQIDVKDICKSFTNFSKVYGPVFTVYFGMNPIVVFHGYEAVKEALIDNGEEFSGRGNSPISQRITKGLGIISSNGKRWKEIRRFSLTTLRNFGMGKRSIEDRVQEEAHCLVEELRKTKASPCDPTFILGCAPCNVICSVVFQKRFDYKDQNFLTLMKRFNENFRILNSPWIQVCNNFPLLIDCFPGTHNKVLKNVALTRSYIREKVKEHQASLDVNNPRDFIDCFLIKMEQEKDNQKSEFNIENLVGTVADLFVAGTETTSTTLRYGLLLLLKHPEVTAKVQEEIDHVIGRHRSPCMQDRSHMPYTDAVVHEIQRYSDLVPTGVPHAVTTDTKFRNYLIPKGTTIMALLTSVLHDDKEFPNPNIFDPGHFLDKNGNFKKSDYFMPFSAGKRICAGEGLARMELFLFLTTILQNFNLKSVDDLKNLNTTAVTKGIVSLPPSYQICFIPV
Description: as §1

[2] = parameters: method as in PMID 30974202; details: rats, oral extract of processed Aconite root 1 g/kg as original crude drug; cited from earlier work
CYP2C8 [3] = test: Metabolic activity of paclitaxel in human cryopreserved hepatocytes: 6α-hydroxypaclitaxel production; details: 72 h treatment at 1–10 µM, then paclitaxel 10 µM 60 min
Description: (§2) Plateable and interaction-qualified cryopreserved human hepatocytes (Lonza, Walkersville, MD, USA) were thawed in a hepatocyte thawing medium (Lonza) and then seeded at 5 × 10^4 cells per well in collagen-coated 96-well plates (Corning, Corning, NY, USA) with hepatocyte plating medium (Lonza). After 1 h of incubation with 5% CO2 under saturated humidity at 37 °C, the medium was replaced with fresh plating medium. After 4 h of seeding, the media were replaced with maintenance medium (Lonza) containing Matrigel (0.3 mg/ml).
(§3) After removing the medium containing Matrigel from the cells, the cells were treated with each test compound prepared in a maintenance medium (1, 3, and 10 µM). Rifampicin, a well-known CYP2C8 and CYP3A4 inducer, was used as a positive control and treated under the same conditions. […] To obtain the samples to evaluate mRNA levels, the cells were collected 24 h after drug treatment (n = 3 per test compound). […] The concentration of DMSO in the maintenance medium was 0.1%. A cell viability assay using CellTiter-Glo (Promega, Madison, WI, USA) was used to ensure the absence of cell toxicity during treatment with each compound.

CYP2C8 [4] = test: CYP2C8 mRNA expression in human cryopreserved hepatocytes (quantitative PCR); details: 24 h, 1, 3 and 10 µM
Description: as §2, §3
RNA isolation and cDNA synthesis were carried out using the Superprep II Cell Lysis & RT Kit (Toyobo, Osaka, Japan) according to the manufacturer’s protocol. […] Data are expressed as fold-changes to the vehicle control.

[5] = any concentration from 0.050 to 50 µM
[6] = human, pH 7.4, probe paclitaxel (6α-hydroxypaclitaxel formation)

CYP3A4, sequence (P08684 whole entry): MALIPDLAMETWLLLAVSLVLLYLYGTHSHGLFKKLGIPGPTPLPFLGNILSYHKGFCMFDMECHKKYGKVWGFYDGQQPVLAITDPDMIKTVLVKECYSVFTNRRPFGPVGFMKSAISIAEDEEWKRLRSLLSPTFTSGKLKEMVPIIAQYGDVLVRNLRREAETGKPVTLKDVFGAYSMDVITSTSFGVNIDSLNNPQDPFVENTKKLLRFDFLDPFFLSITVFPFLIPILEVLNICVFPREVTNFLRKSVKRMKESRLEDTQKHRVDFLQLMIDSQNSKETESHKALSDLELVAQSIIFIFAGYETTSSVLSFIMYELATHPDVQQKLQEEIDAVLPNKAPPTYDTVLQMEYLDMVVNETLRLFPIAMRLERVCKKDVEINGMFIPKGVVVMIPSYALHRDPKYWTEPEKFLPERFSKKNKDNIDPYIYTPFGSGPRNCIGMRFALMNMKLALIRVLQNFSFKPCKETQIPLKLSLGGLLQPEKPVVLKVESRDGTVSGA

## O=C(O)C1=CO[C@@H](O[C@@H]2O[C@H](CO)[C@@H](O)[C@H](O)[C@H]2O)[C@@H]2C(CO)=CC[C@H]12 [geniposidic acid]
CYP3A4; at 50 µM
  effect on production of 3'-p-hydroxypaclitaxel: induced
CYP2C8 [1]; at 50 µM
  effect on production of 6α-hydroxypaclitaxel: significantly induced

## C[C@@]12C[C@@]3(O)O[C@@H](O1)[C@]1(COC(=O)c4ccccc4)[C@H]3C[C@@]12O[C@@H]1O[C@H](CO)[C@@H](O)[C@H](O)[C@H]1O [paeoniflorin]
CYP3A4; [5]
  effect on paclitaxel metabolism (3'-p-hydroxypaclitaxel production): did not affect
CYP2C8 [1]; [5]
  effect on paclitaxel metabolism (6α-hydroxypaclitaxel production): did not affect

## O=c1c(O)c(-c2ccc(O)c(O)c2)oc2cc(O)cc(O)c12 [quercetin]
CYP2C8 [1]; [6]
  activity at 140 min, 0.3 µM: 49%
  activity at 140 min, 3 µM: 29%

## OC[C@H]1O[C@@H](O[C@@H]2OC=C[C@H]3[C@H](O)[C@@H]4O[C@]4(CO)[C@@H]23)[C@H](O)[C@@H](O)[C@@H]1O [catalpol]
CYP2C8 [1]; at 50 µM
  effect on production of 6α-hydroxypaclitaxel: significantly induced

## COC(=O)C1=CO[C@@H](O[C@@H]2O[C@H](CO)[C@@H](O)[C@H](O)[C@H]2O)[C@@H]2[C@@H](C)[C@@H](O)C[C@H]12 [loganin]
CYP2C8 [1]; at 50 µM
  effect on production of 6α-hydroxypaclitaxel: significantly induced

## neoline
CYP3A4; at 5 µM
  induction ratio of 3'-p-hydroxypaclitaxel production: less than 10%
CYP3A4; at 5.0 µM
  effect on production of 3'-p-hydroxypaclitaxel: significantly induced
CYP3A4; at 50 µM
  effect on production of 3'-p-hydroxypaclitaxel: significantly inhibited
CYP2C8 [1]; at 5 µM
  induction ratio of 6α-hydroxypaclitaxel production: less than 10%
CYP2C8 [1]; at 5.0 µM
  effect on production of 6α-hydroxypaclitaxel: significantly induced
[2]
  maximum blood concentration of neoline: approximately 80 nM

## CO[C@H]1/C=C/O[C@@]2(C)Oc3c(C)c(O)c4c(O)c(c(/C=N/N5CCN(C)CC5)c(O)c4c3C2=O)NC(=O)/C(C)=C\C=C\[C@H](C)[C@H](O)[C@@H](C)[C@@H](O)[C@@H](C)[C@H](OC(C)=O)[C@@H]1C [Rifampicin, rifampicin]
CYP2C8 [3]
  effect on production of 6α-hydroxypaclitaxel by human hepatocytes: significantly induced
CYP2C8 [4]
  effect on CYP2C8 mRNA expression: significantly induced
